Source: patent US12410124B2 (priority 2019, dated 2025)
Where two headings read alike, the source gives them in different places.

What was measured:
[1] = target: acetylcholinesterase (AchE) (Homo sapiens, UniProt P22303); assay: biochemical
Description: The modified Ellman method was used to determine the inhibitory activity on acetylcholinesterase. The principle lies in that acetylthiocholine iodide is decomposed under the action of acetylcholinesterase (AchE) to generate thiocholine. The thiocholine is quickly reacted with DTNB as the colour-developing agent to generate a yellow substance with light absorption at 405 nm. To a 96-well microplate, 50 μl of enzyme reaction buffer, 125 μl of DTNB (3 mM), 25 μl of test sample or positive control drug, and 25 μl of AchE (0.2 U/ml) were successively added. After incubation at room temperature for 5 min, 25 μl of ATCI (15 mM) was added. After incubation at room temperature for 8 min, the absorbance value was determined at 405 nm with a microplate reader. A blank control group without enzyme (25 μl PBS instead of the sample to be tested) was also established.

hippocampus GFAP = assay: Number of hippocampus astrocytes with GFAP positive expression in MPTP Parkinson's disease model mouse (immunohistochemistry); format: in vivo; details: for Positive cell number (astrocytes with GFAP positive expression): hippocampus, MPTP Parkinson's disease model mouse, immunohistochemistry
Description: (§1) Neurotoxins can be used to establish PD animal models. Currently, 1-methyl-4-phenyl-1,2,3,6-tetrahydropyridine (MPTP) is the sole synthetic toxin which is recognized to induce PD symptoms in human and non-human primates and in mice. Using MPTP subacute modeling method, C57BL/6J male mice were intraperitoneally injected with MPTP 30 mg/kg, once a day for 5 consecutive days. The experiment animals were divided into blank control group, MPTP model group, and compound treatment group. For the […] compound treatment group, the compound was administrated by gavage for 21 consecutive days after the completion of modeling; for the MPTP model group, the normal saline was administrated by gavage for 21 consecutive days after the completion of modeling; and for the blank control group, the normal saline was first intraperitoneally injected for 5 days, and then administrated by gavage for 21 days.
(§2) Neuron-glial cell network homeostasis disorder is an important factor for the selective and progressive death of substantia nigra dopaminergic neurons in PD. In the neurotoxic effect of MPTP, the excessive activations of microglial cells and astrocytes produce a variety of inflammatory cytokines and reactive oxygen species (ROS). These inflammatory factors and ROS amplify their respective toxicities and mediate malignant feedback loop, causing a cascade inflammation response and aggravating the pathological process of PD. CD11b and GFAP are the marker proteins for activations of microglial cells and astrocytes, respectively. Therefore, the effect of the target compounds on the activations of the microglial cells and astrocytes in the substantia nigra, hippocampus, and midbrain areas of MPTP-induced PD mice can be investigated, to explore the mechanism of the anti-PD effect of the target compounds by inhibiting the neuroinflammation.
(§3) Half of experiment mice in each group were taken to separate the midbrain after perfusion and fixation. The tissue was trimmed, and the hippocampus area was taken to prepare paraffin sections. The GFAP immunohistochemical staining was performed for the statistics of the change in the number of astrocytes with GFAP positive expression. The experiment included blank control group, MPTP model group, positive control group (caffeic acid phenethyl ester, CAPE), prototype control group (styryl sulfone compounds 3B, 3C, 3D, and 3G, whose structures are shown as above), and target compound group.

substantia nigra GFAP = assay: Number of substantia nigra astrocytes with GFAP positive expression in MPTP Parkinson's disease model mouse (immunohistochemistry); format: in vivo; details: for Positive cell number (astrocytes with GFAP positive expression): substantia nigra, MPTP Parkinson's disease model mouse, immunohistochemistry
Description: as §1, §2
as §3, with “substantia nigra” for “hippocampus”

midbrain CD11b = assay: Midbrain CD11b protein expression in MPTP Parkinson's disease model mouse (western-blotting); format: in vivo; details: for Expression (CD11b/GAPDH): midbrain, MPTP Parkinson's disease model mouse, western-blotting
Description: as §1, §2
[…] The experiment included blank control group, MPTP model group, positive control group (caffeic acid phenethyl ester, CAPE), prototype control group (styryl sulfone compounds 3B, 3C, 3D), and 3G, whose structures are shown as above), and target compound group.

hippocampus CD11b = assay: Number of hippocampus microglial cells with CD11b positive expression in MPTP Parkinson's disease model mouse (immunohistochemistry); format: in vivo; details: for Positive cell number (microglial cells with CD11b positive expression): hippocampus, MPTP Parkinson's disease model mouse, immunohistochemistry
Description: as §1, §2
as §3, with “CD11b” for “GFAP”, “microglial cells” for “astrocytes”

HO-1 = assay: Midbrain HO-1 expression in MPTP Parkinson's disease model mouse (western blot); format: in vivo; details: for Expression (HO-1/GAPDH): midbrain, MPTP Parkinson's disease model mouse, western blot
Description: as §1
Oxidative stress is an important pathogenic mechanism of PD. Dopaminergic neurons are more sensitive to oxidative stress and are more susceptible to oxidative stress damage. Heme oxygenase (HO-1), a phase II enzyme, is also a well-known antioxidase. It plays an important protective role by catalyzing the conversion of free radicals into non-toxic products and increasing their water solubility to facilitate the elimination of free radicals, and maintain the redox balance in the body. It plays an important role in the process of protecting cells against oxidative stress damage. The activation of p38 protein phosphorylation has a negative regulatory effect on phase II enzymes. […] Using HO-1 as an indicator, the inhibitory effect of the target compounds on MPTP-induced oxidative stress damage in PD mice can be investigated.
HO-1 is expressed in astrocytes, microglial cells, and neurons. The total proteins of the midbrain tissue of mice in each experiment group were extracted, to determine the expression of phase II enzyme HO-1 in the midbrain of mice by western blot using GAPDH as the internal reference. The experiment included blank control group, MPTP model group, positive control group (caffeic acid phenethyl ester, CAPE), prototype control group (styryl sulfone compounds 3B, 3C, 3D, and 3G, whose structures are shown as above), and target compound group.

[2] = acetylcholinesterase, modified Ellman method, read-out: IC50

Chain of acetylcholinesterase (AchE) (P22303 32-614, species assumed): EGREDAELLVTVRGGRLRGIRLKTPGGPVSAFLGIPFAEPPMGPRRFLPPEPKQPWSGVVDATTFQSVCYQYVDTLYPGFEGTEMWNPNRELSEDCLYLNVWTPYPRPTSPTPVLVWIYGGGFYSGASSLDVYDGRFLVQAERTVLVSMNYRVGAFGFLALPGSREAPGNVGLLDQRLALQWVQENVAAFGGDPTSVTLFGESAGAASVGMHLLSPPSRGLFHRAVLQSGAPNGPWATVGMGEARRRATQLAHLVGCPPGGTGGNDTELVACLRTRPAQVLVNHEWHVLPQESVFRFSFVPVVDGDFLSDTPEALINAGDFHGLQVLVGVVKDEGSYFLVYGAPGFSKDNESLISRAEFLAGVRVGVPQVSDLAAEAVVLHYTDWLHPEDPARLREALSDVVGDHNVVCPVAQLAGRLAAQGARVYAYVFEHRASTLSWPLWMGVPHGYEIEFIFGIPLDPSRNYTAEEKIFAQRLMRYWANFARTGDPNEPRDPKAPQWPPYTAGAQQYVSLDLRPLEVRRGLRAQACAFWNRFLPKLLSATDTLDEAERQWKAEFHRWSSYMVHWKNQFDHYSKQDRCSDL

Compound	IC50 [1, 2]	number of hippocampus astrocytes with GFAP positive expression compared with the styryl sulfone prototype compounds (hippocampus GFAP)	Positive cell number (astrocytes with GFAP positive expression) (hippocampus GFAP)	number of substantia nigra astrocytes with GFAP positive expression compared with the styryl sulfone prototype compounds (substantia nigra GFAP)	Positive cell number (astrocytes with GFAP positive expression) (substantia nigra GFAP)	midbrain CD11b protein expression compared with the styryl sulfone prototype compounds (midbrain CD11b)	Expression (CD11b/GAPDH) (midbrain CD11b)	number of hippocampus microglial cells with CD11b positive expression compared with the styryl sulfone prototype compounds (hippocampus CD11b)	Positive cell number (microglial cells with CD11b positive expression) (hippocampus CD11b)	midbrain HO-1 expression compared with the styryl sulfone prototype compounds (HO-1)	Expression (HO-1/GAPDH) (HO-1)	IC50 [1]
CCN(CC)C(=O)Oc1ccc(/C=C/S(=O)(=O)Cc2ccc(C(F)(F)F)cc2)cc1OC(=O)N(CC)CC [Compound B1-1, (E)-4-{2-[(4-trifluoromethylphenyl)mesyl]ethenyl}-1,2-phenylenebis(diethylcarbamate)]	13.3 ± 2.85 µM	significantly lower	64 ± 4	significantly lower	88 ± 5	equivalent or lower	0.41 ± 0.05	significantly lower	9 ± 2	significantly higher	0.90 ± 0.10	–
CCN(CC)C(=O)Oc1ccc(/C=C/S(=O)(=O)Cc2ccc(Cl)cc2)cc1OC(=O)N(CC)CC [Compound D1-1, (E)-4-{2-[(4-chlorophenyl)mesyl]ethenyl}-1,2-phenylenebis(diethylcarbamate)]	4.16 ± 1.07 µM	significantly lower	58 ± 5	significantly lower	64 ± 3	equivalent or lower	0.33 ± 0.05	significantly lower	7 ± 1	significantly higher	1.63 ± 0.12	–
Cc1ccc(S(=O)(=O)Oc2ccc(CS(=O)(=O)/C=C/c3ccc(OS(=O)(=O)c4ccc(C)cc4)c(OC(=O)N(C)S(=O)(=O)c4ccc(C)cc4)c3)cc2)cc1 [Compound S6-6, (E)-2-(N-methyl-N-p-tosylcarbamoyloxy)-4-{2-[(4-p-tosyloxyphenyl)mesyl]ethenyl}phenyl p-toluenesulfonate]	–	–	58 ± 2	–	78 ± 4	–	0.62 ± 0.04	–	9 ± 2	–	1.08 ± 0.11	15.6 ± 3.07 µM
CNC(=O)Oc1ccc(/C=C/S(=O)(=O)CC(Cl)c2ccc(Cl)c([N+](=O)[O-])c2)cc1O (stereo not shown) [Compound E2-2, (E)-4-{2-[2-chloro-2-(4-chloro-3-nitrophenyl)ethylsulfonyl]ethenyl}-2-hydroxyphenyl-N-methylcarbamate]	–	–	50 ± 5	–	102 ± 5	–	1.17 ± 0.06	–	15 ± 2	–	1.58 ± 0.08	51.3 ± 3.94 µM
O=C(NC(=O)C(F)(F)F)Oc1ccc(/C=C/S(=O)(=O)C(F)(F)c2ccc(Oc3ccccn3)cc2)cc1OC(=O)C(F)(F)C(F)(F)F [Compound L1-4, (E)-5-{2-[(4-[pyridin-2-yl-oxy]phenyl)difluoromethylsulfonyl]ethenyl}-2-[N-(2,2,2-trifluoroacetyl)carbamoyloxy]phenyl-2,2,3,3,3-pentafluoropropionate]	9.48 ± 1.34 µM	–	76 ± 4	–	98 ± 4	–	1.09 ± 0.09	–	15 ± 2	–	1.13 ± 0.12	–
Cc1ccc(N2CCN(C(=O)Oc3ccc(/C=C/S(=O)(=O)CCCC(c4ccc(OC(=O)CN(C)C)cc4)N(C)C)cc3OC(=O)N(C)c3ccccc3)CC2)cc1 (stereo not shown) [Compound P1-1, (E)-4-{2-[4-(dimethylamino)-4-(4-(N,N-dimethylglycyloxy)phenyl)butylsulfonyl]ethenyl}-2-(N-methyl-N-phenylcarbamoyloxy)phenyl-4-(p-methylphenyl)piperazine-1-carboxylate]	–	–	72 ± 3	–	73 ± 6	–	0.70 ± 0.06	–	7 ± 2	–	1.17 ± 0.05	11.3 ± 1.48 µM
CCOC(CS(=O)(=O)/C=C/c1ccc(OC(C)=O)c(OC(=O)Nc2ccc(NC)cc2)c1)C(OCC)c1ccc(OCc2ccccc2)c(O)c1 (stereo not shown) [Compound H2-4, (E)-4-{2-[3-(4-benzyloxy-3-hydroxyphenyl)-2,3-diethoxypropyl]sulfonylethenyl}-2-[N-(4-methylaminophenyl)carbamoyloxy]phenyl acetate]	11.3 ± 1.34 µM	–	61 ± 5	–	93 ± 6	–	0.69 ± 0.04	–	7 ± 1	–	0.95 ± 0.10	–
(E)-2-[(methylamino)methoxy]-4-{2-[1-(4′-nitro-[1,1′-biphenyl]-4-yl)ethylsulfonyl]ethenyl}phenylcarbamate [Compound M1-3]	17.6 ± 2.19 µM	–	57 ± 3	–	110 ± 5	–	0.84 ± 0.06	–	12 ± 2	–	0.80 ± 0.09	–
CC(=O)Oc1ccc(/C=C/S(=O)(=O)Cc2c(F)c(F)c(F)c(F)c2F)cc1OC(=O)NC(=O)c1ccc([N+](=O)[O-])c(C)c1 [Compound D5-4, (E)-2-[N-(3-methyl-4-nitrobenzoyl)carbamoyloxy]-4-{2-[(perfluorophenyl)mesyl]ethenyl}phenyl acetate]	20.8 ± 3.12 µM	–	59 ± 3	–	97 ± 5	–	1.11 ± 0.10	–	12 ± 2	–	0.93 ± 0.10	–
